Experimental findings from PubChem BioAssay (NCI) are described below.

Structures are written as SMILES.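 These data come from cells grown in 96-well plates and exposed to compound for 48 hours at five concentrations. The concentration for 50% growth inhibition is given as GI50. TGI is the concentration that stops growth completely.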

Some test systems named below: SNB-78 CNS; HOP-18 NSCLC; DMS 114 small cell lung; XF 498 CNS; LXFL 529 NSCLC; M19-MEL melanoma; DMS 273 small cell lung; KM20L2 colon; P388/ADR leukemia; SN12K1 renal; P388 leukemia.
Common to all, as to assay: NCI tumour cell line growth inhibition, 48 h

With `O=C([O-])c1ccccc1Nc1ccccc1C(=O)[O-].[OH3+].[Zn+2]`, the TGI in the experiment on SNB-78 CNS is over 87.1 µM; with HOP-18 NSCLC it was over 75.9 µM; in the experiment with DMS 114 small cell lung, 37.4 µM; in the experiment with XF 498 CNS, 57.3 µM; in the experiment with LXFL 529 NSCLC it was 44.7 µM; in the experiment on M19-MEL melanoma it was 50.1 µM. The TGI with DMS 273 small cell lung was 29.2 µM; in the experiment with KM20L2 colon, over 100 µM.

With `N=C1c2ccccc2C(=O)c2c(NCCNCCO)ccc(O)c21`, the TGI with SNB-78 CNS was over 60 µM; with HOP-18 NSCLC, 54.8 µM; in the experiment on DMS 114 small cell lung it was 15.1 µM; with LXFL 529 NSCLC, 27.8 µM; in the experiment with M19-MEL melanoma it was 17.3 µM; with DMS 273 small cell lung, 18.9 µM. The compound also gave a TGI in the experiment on KM20L2 colon of 22 µM.

With `N/C(=C\c1ccc(/C=C(\NC(=O)c2ccccc2)c2nc3c([nH]2)C(=O)c2ccccc2C3=O)cc1)c1nc2c([nH]1)C(=O)c1ccccc1C2=O`, the TGI in the experiment on SNB-78 CNS turned out to be 63.1 µM; with HOP-18 NSCLC, 28.4 µM; with DMS 114 small cell lung it was 22.9 µM; in the experiment with XF 498 CNS, 24.3 µM; in the experiment with LXFL 529 NSCLC, 24.6 µM; with DMS 273 small cell lung it was 42.1 µM. The compound also displayed a TGI in the experiment on KM20L2 colon of 36.2 µM.

In the case of `N#C[S-].[Ce+3].c1ccc(-c2ccccn2)nc1.c1ccc(-c2ccccn2)nc1.c1ccc(-c2ccccn2)nc1`, the GI50 in the experiment on SNB-78 CNS was 58.3 µM; with HOP-18 NSCLC, 4.33 µM; in the experiment on DMS 114 small cell lung, 23.9 µM; with M19-MEL melanoma it was 15.4 µM; in the experiment on DMS 273 small cell lung, 11 µM. Besides, the TGI with SNB-78 CNS is over 100 µM; in the experiment on HOP-18 NSCLC, 46.8 µM; in the experiment on DMS 114 small cell lung it was 78.8 µM; with M19-MEL melanoma it was 65.8 µM; with DMS 273 small cell lung it was 33.9 µM.

Turning to `CCOC(=O)NC(=O)c1cn(CCN(CCO)C(=O)NCCCCCCNC(=O)N(CCO)CCn2cc(C(=O)NC(=O)OCC)c(=O)[nH]c2=O)c(=O)[nH]c1=O`, the TGI in the experiment on P388/ADR leukemia, in the experiment on SN12K1 renal, with SNB-78 CNS, in the experiment with HOP-18 NSCLC, in the experiment on DMS 114 small cell lung and in the experiment with XF 498 CNS was over 100 µM each time. The TGI in the experiment on M19-MEL melanoma, in the experiment with DMS 273 small cell lung, with KM20L2 colon and with P388 leukemia was over 100 µM in each case.
